From PubChem BioAssay AID1259411 (Chemical Carcinogenesis Research Information System (CCRIS), 2018)
Calls of active or inactive are those of the source. How the calls were made is not given here.

Tested on: rodent carcinogenicity bioassays, tumor incidence
Test: CCRIS carcinogenicity studies
Procedure, shortened: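 NCI-built, expert-reviewed records of carcinogenicity and related test outcomes (mutagenicity, tumor promotion/inhibition) compiled from published and report sources, historical span 1985-2011, not updated.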

SMILES: c1ccc2nc3c(ccc4ccccc43)cc2c1
- carcinogen call (Species: MOUSE, Strain/Sex: SWISS/FEMALE, Route: INTRAPERITONEAL, Dose: 0, 1.05 UMOL GIVEN AS 150 NMOL IN 5 µL DMSO WITHIN 24 HR OF BIRTH, 300 NMOL IN 10 µL DMSO ON D 8 OF LIFE, AND 600 NMOL I, Tumor Site: Type of Lesion: LUNG: ADENOMA): active; positive
- carcinogen call (Species: MOUSE, Strain/Sex: SWISS/MALE, Route: INTRAPERITONEAL, Dose: 0, 1.05 UMOL GIVEN AS 150 NMOL IN 5 µL DMSO WITHIN 24 HR OF BIRTH, 300 NMOL IN 10 µL DMSO ON D 8 OF LIFE, AND 600 NMOL I, Tumor Site: Type of Lesion: LUNG: ADENOMA, LIVER: NEOPLASTIC NODULE): active; positive
- carcinogen call (Species: RAT, Strain/Sex: OSBORNE-MENDEL/FEMALE, Route: LUNG IMPLANT, Dose: 0, 0.1, 0.3, 1.0 MG IN BEESWAX/TRICAPRYLIN (STUDY DURATION: LIFETIME), Dose: 0, 0.1, 0.3, 1.0 MG IN BEESWAX/TRICAPRYLIN (STUDY DURATION: LIFETIME)): inactive; negative

SMILES: CCCCOC(=O)[C@@H](C)Oc1ccc(Oc2ccc(C#N)cc2F)cc1
- carcinogen call (Species: Mouse, Strain/Sex: ICR (Crj:CD-1)/(Male (52/group), Route: Oral, Dose: 0, 3, 10, 100 ppm (0; 0.31; 0.99; 10.1 mg/kg/day) of 97.1% pure cyhalofop-butyl in diet for 78 wk, Dose: 0, 3, 10, 100 ppm (0; 0.31; 0.99; 10.1 mg/kg/day) of 97.1% pure cyhalofop-butyl in diet for 78 wk): inactive; negative
- carcinogen call (Species: Mouse, Strain/Sex: ICR (Crj:CD-1)/Female (52/group), Route: Oral, Dose: 0, 3, 10, 100 ppm (0; 0.29; 0.99; 10.3 mg/kg/day) of 97.1% pure cyhalofop-butyl in diet for 78 wk, Dose: 0, 3, 10, 100 ppm (0; 0.29; 0.99; 10.3 mg/kg/day) of 97.1% pure cyhalofop-butyl in diet for 78 wk): inactive; negative

SMILES: CCCCN(N=O)C1CCC(=O)O1 (stereo not drawn)
- carcinogen call (Species: RAT, Strain/Sex: F344/MALE, Route: SUBCUTANEOUS, Dose: 38 UMOL/KG IN OLIVE OIL 1/WK FOR 10 WK, Tumor Site: Type of Lesion: INJECTION SITE: MALIGNANT FIBROUS HISTIOCYTOMA, LUNG: ADENOMA): active; positive

SMILES: COc1ccc([N+](=O)[O-])cc1N
- carcinogen call (Species: MOUSE, Strain/Sex: B6C3F1/FEMALE, Route: ORAL, Dose: 0, 0.8% IN DIET FOR 78 WK (STUDY DURATION: 97 WK)): inactive; negative
- carcinogen call (Species: MOUSE, Strain/Sex: B6C3F1/FEMALE, Route: ORAL, Dose: 0, 1.6% IN DIET FOR 15 WK FOLLOWING BY 0.4% FOR LAST 63 WK (STUDY DURATION: 97 WK), Tumor Site: Type of Lesion: LIVER: HEPATOCELLULAR CARCINOMA): active; positive
- carcinogen call (Species: MOUSE, Strain/Sex: B6C3F1/MALE, Route: ORAL, Dose: 0, 0.8% IN DIET FOR 78 WK (STUDY DURATION: 97 WK), Tumor Site: Type of Lesion: LIVER: HEPATOCELLULAR CARCINOMA): equivocal
- carcinogen call (Species: MOUSE, Strain/Sex: B6C3F1/MALE, Route: ORAL, Dose: 0, 1.6% IN DIET FOR FIRST 15 WK FOLLOWING BY 0.4% FOR 63 WK (STUDY DURATION: 97 WK)): inactive; negative
- carcinogen call (Species: RAT, Strain/Sex: F344/FEMALE, Route: ORAL, Dose: 0, 0.4, 0.8% IN DIET FOR 78 WK (STUDY DURATION: 106-108 WK), Dose: 0, 0.4, 0.8% IN DIET FOR 78 WK (STUDY DURATION: 106-108 WK), Tumor Site: Type of Lesion: CLITORAL GLAND: CARCINOMA (NOS), CARCINOMA (NOS) OR SQUAMOUS CELL CARCINOMA, ADENOMA (NOS) OR PAPILLARY ADENOMA OR CARCI): active; positive
- carcinogen call (Species: RAT, Strain/Sex: F344/MALE, Route: ORAL, Dose: 0, 0.4, 0.8% IN DIET FOR 78 WK (STUDY DURATION: 102-109 WK), Dose: 0, 0.4, 0.8% IN DIET FOR 78 WK (STUDY DURATION: 102-109 WK), Tumor Site: Type of Lesion: INTEGUMENTARY SYSTEM (SKIN): BASAL CELL CARCINOMA, TRICHOEPITHELIOMA;INTEGUMENTARY SYSTEM (EXCLUDING SKIN OF EAR): SQUAM): active; positive

SMILES: N#Cc1c(Cl)cccc1Cl
- carcinogen call (Species: MICE, Strain/Sex: SWISS/MALE, Route: INTRAPERITONEAL, Dose: 2 PPM (0.0005MG) 1/3 D FOR 13 TIMES (STUDY DURATION: 375 D), Tumor Site: Type of Lesion: LYMPHATIC SYSTEM: HISTIOCYTIC LYMPHOMA, PLASMA CELL LYMPHOMA, LIVER: HEPATOCELLULAR CARCINOMA): active; positive
- carcinogen call (Species: MICE, Strain/Sex: SWISS/MALE, Route: SUBCUTANEOUS, Dose: 2 PPM (0.0005MG) 1/3 D FOR 13 TIMES (STUDY DURATION: 375 D), Tumor Site: Type of Lesion: LYMPHATIC SYSTEM: PLASMA CELL LYMPHOMA, LUNG: CARCINOMA, BODY CAVITY: MESOTHELIOMA, LIVER: HEPATOCELLULAR CARCINOMA, Tumor Site: Type of Lesion: LYMPHATIC SYSTEM: PLASMA CELL LYMPHOMA, LUNG: CARCINOMA, BODY CAVITY: MESOTHELIOMA, LIVER: HEPATOCELLULAR CARCINOMA): active; positive

SMILES: CCCCCl
- carcinogen call (Species: MOUSE, Strain/Sex: B6C3F1/FEMALE, Route: GAVAGE, Dose: 0, 250, 500 MG/KG IN CORN OIL 5 D/WK FOR 103 WK, Dose: 0, 250, 500 MG/KG IN CORN OIL 5 D/WK FOR 103 WK): inactive; negative
- carcinogen call (Species: MOUSE, Strain/Sex: B6C3F1/MALE, Route: GAVAGE, Dose: 0, 500, 1000 MG/KG IN CORN OIL 5 D/WK FOR 103 WK, Dose: 0, 500, 1000 MG/KG IN CORN OIL 5 D/WK FOR 103 WK): inactive; negative
- carcinogen call (Species: RAT, Strain/Sex: F344/FEMALE, Route: GAVAGE, Dose: 0, 60, 120 MG/KG IN CORN OIL 5 D/WK FOR 103 WK, Dose: 0, 60, 120 MG/KG IN CORN OIL 5 D/WK FOR 103 WK): inactive; negative
- carcinogen call (Species: RAT, Strain/Sex: F344/MALE, Route: GAVAGE, Dose: 0, 60, 120 MG/KG IN CORN OIL 5 D/WK FOR 103 WK, Dose: 0, 60, 120 MG/KG IN CORN OIL 5 D/WK FOR 103 WK): inactive; negative
